Results from ChEMBL document CHEMBL5604063, “ASAP - DENV-2 NS2B-NS3 protease fluorescence dose response” (2024).

Target: Genome polyprotein (dengue virus type 2, UniProt P29990)
Format: functional, Thailand/16681/1984

Chain of Genome polyprotein (P29990 1346-1475 limits assumed): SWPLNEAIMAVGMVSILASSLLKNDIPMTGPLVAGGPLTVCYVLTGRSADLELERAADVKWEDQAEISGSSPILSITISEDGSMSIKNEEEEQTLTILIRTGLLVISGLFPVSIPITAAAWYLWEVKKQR
Chain of Genome polyprotein (P29990 1476-2093 limits assumed): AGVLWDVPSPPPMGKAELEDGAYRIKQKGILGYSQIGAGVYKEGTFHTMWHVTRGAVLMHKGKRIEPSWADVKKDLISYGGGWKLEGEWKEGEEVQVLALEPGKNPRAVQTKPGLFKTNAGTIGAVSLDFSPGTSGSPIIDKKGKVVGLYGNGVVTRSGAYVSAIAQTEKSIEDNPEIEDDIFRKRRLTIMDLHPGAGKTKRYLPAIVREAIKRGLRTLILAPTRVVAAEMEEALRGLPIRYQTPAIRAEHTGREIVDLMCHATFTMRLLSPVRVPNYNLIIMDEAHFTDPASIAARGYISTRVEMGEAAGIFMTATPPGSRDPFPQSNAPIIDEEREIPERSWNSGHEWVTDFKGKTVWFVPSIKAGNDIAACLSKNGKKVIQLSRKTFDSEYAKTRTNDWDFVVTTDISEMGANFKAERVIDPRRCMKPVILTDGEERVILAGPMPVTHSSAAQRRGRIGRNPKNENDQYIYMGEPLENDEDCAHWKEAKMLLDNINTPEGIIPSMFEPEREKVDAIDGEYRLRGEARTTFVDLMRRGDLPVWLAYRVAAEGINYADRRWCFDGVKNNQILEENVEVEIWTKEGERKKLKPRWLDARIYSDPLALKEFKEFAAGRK

Row | Compound | IC50 [µM]
1 | NCc1ccc(-c2ncc(OCC3CCNCC3)nc2-c2ccc(-c3ccoc3)cc2)cc1 | > 99.5
2 | Cc1cc(Cl)c(C)c(C(=O)O)c1NS(=O)(=O)c1ccc(Oc2ccccc2Cl)cc1 | 36.5
3 | C[C@@H](C(=O)Nc1cccc(CN)c1)c1ccc(OCc2ccccc2)cc1 | > 99.5
4 | NCc1cccc(NC(=O)[C@H](NC(=O)OCc2ccccc2)C(C2CCC2)C2CCC2)c1 | > 99.5
5 | CN1CCN(C2CN(C(=O)c3cc(Br)cc(C=O)c3)C2)CC1 | > 99.5
6 | O=C(O)c1cc(Cl)ccc1CS(=O)(=O)c1ccc(Oc2ccccc2Cl)cc1 | > 99.5
7 | CC(C)(C)OC(=O)NCc1cccc(NC(=O)[C@@H](NC(=O)OCc2ccccc2)c2ccc(O)cc2)c1 | > 99.5
8 | Cc1cc(C(=O)O)c(NS(=O)(=O)c2ccc(Oc3ccccc3Cl)cc2)cc1F | 8.69
9 | O=S(=O)(Nc1ccc(Cl)cc1CO)c1ccc(Oc2ccccc2Cl)cc1 | 78.8
10 | CN1CCN(C2CCN(C(=O)c3cc(C=O)n(C)c3)CC2)CC1 | > 99.5
11 | NCc1cccc(NC(=O)C[C@@H](NC(=O)OCc2ccccc2)c2ccc(OCc3ccccc3)cc2)c1 | 10.4
12 | CCn1cc(-c2ccccc2)nc(N2CC[C@@H](CO)C2)c1=O | > 99.5
13 | Cn1cc(C(=O)O)c(NS(=O)(=O)c2ccc(Oc3ccccc3Cl)cc2)n1 | > 99.5
14 | Cn1nccc1-c1ccc([C@@H](NC(=O)OCc2ccccc2)C(=O)Nc2cccc(CN)c2)cc1 | > 99.5
15 | COc1ccc(S(=O)(=O)Nc2cc(F)c(Cl)cc2C(=O)NCC(C)C)cc1 | 97
16 | NCc1cccc(NC(=O)[C@@H](NC(=O)OCc2ccccc2)c2c(F)cccc2F)c1 | > 99.5
17 | O=C(O)c1cc(Cl)ccc1NS(=O)(=O)c1ccc(Oc2ccccc2)cc1 | 21.7
18 | c1ccc2c(CN3CCC(c4nn[nH]n4)CC3)c[nH]c2c1 | > 99.5
19 | Cc1cnn(-c2cc(C(=O)O)c(NS(=O)(=O)c3ccc(Oc4ccccc4Cl)cc3)cc2F)c1 | 6.2
20 | COC(=O)c1cc(Cl)ccc1NS(=O)(=O)c1ccc(O)cc1 | > 99.5
21 | CCn1cc(Cl)nc(N2CC[C@@H](CO)C2)c1=O | > 99.5
22 | NC(=O)[C@H](c1c[nH]c2ccccc12)N1CCC(c2cnc3ccc[nH]c2-3)CC1 | > 99.5
23 | CCn1cc(-c2cnn(C)n2)nc(N2CC[C@@H](CO)C2)c1=O | > 99.5
24 | O=C(O)c1cc(Cl)cc(NS(=O)(=O)c2ccc(Oc3ccccc3Cl)cc2)c1 | > 99.5
25 | O=C(O)c1cc(OC2CCOCC2)c(F)cc1NS(=O)(=O)c1ccc(Oc2ccccc2Cl)cc1 | 13.7
26 | OC[C@H]1CCN(c2cncc(N3CCOCC3)n2)C1 | > 99.5

Row | Compound | IC50 [µM]
27 | CCOc1cccc(N2CC[C@@H](CO)C2)c1 | > 99.5
28 | NCc1cccc(NC(=O)[C@@H](NC(=O)OCc2ccccc2)c2cccc(Br)c2)c1 | 85.8
29 | N#Cc1cc(F)cc(N2CC[C@H](CO)C2)c1 | > 99.5
30 | Cc1cc(C(=O)O)c(NS(=O)(=O)c2ccc(Oc3ccccc3)cc2)cc1F | 24.9
31 | CC(C)Oc1cncc(N2CC[C@@H](CO)C2)c1 | > 99.5
32 | O=C(O)c1cc(Cl)c(Cl)cc1NS(=O)(=O)c1ccc(Oc2ccccc2Cl)cc1 | 6.6
33 | CCn1cc(-c2cnn(-c3ccccc3)c2)nc(N2CC[C@@H](CO)C2)c1=O | > 99.5
34 | Cn1cc(NS(=O)(=O)c2ccc(Oc3ccccc3Cl)cc2)c(C(=O)O)n1 | > 99.5
35 | O[C@@H]1CN(Cc2c[nH]c3ccccc23)C[C@H]1c1c[nH]c2ccccc12 | > 99.5
36 | Cc1cnc(Oc2ccc(S(=O)(=O)Nc3ccc(Cl)cc3C(=O)O)cc2)cn1 | > 99.5
37 | CCn1cc(-c2ccnc(C)c2)nc(N2CC[C@@H](CO)C2)c1=O | > 99.5
38 | NCc1cccc(NC(=O)[C@@H](N)c2ccc(OCc3ccccc3)cc2)c1 | > 99.5
39 | NCc1cccc(NC(=O)[C@H](NC(=O)OCc2ccccc2)c2ccc(OCc3ccccc3)cc2)c1 | 8.05
40 | O=C(O)c1cc(Cl)ccc1NS(=O)(=O)c1ccc(Oc2ccccc2Cl)nc1 | 46.9
41 | Cc1cc(C)c(C(=O)N2C[C@H]3CN(C)CC[C@@]3(CO)C2)cc1C=O | > 99.5
42 | O=C(O)c1cc(Oc2ccc(F)cc2)c(F)cc1NS(=O)(=O)c1ccc(Oc2ccccc2Cl)cc1 | 3.76
43 | CCn1ccc(-c2ccc([C@@H](NC(=O)OCc3ccccc3)C(=O)Nc3cccc(CN)c3)cc2)n1 | > 99.5
44 | COC(=O)c1cc(Cl)ccc1NS(=O)(=O)c1ccc(Br)cc1 | > 99.5
45 | CN(C)C[C@@]1(O)CCN(C(=O)c2cc(C=O)c[nH]2)C1 | > 99.5
46 | O=C(O)c1c(NS(=O)(=O)c2ccc(Oc3ccccc3Cl)cc2)ccc(Cl)c1F | 18.1
47 | COC(=O)c1cc(Cl)ccc1NS(=O)(=O)c1ccc(Oc2ccccc2Cl)nc1 | > 99.5
48 | COC(=O)[C@@H]1CC2(CC[C@@H]1NS(=O)(=O)c1ccc(Oc3ccccc3Cl)cc1)CC2 | > 99.5
49 | CCn1cc(C(=O)NC)nc(N2CC[C@@H](CO)C2)c1=O | > 99.5
50 | NCc1cccc(CNC(=O)[C@H](NC(=O)OCc2ccccc2)c2ccc(OCc3ccccc3)cc2)c1 | 15.3
51 | CCn1cc(C#N)nc(N2CC[C@@H](CO)C2)c1=O | > 99.5
52 | NCc1cccc(N2CCN(C(=O)OCc3ccccc3)[C@H](c3ccc(OCc4ccccc4)cc3)C2=O)c1 | 74.7

Row | Compound | IC50 [µM]
53 | NCc1cccc(NC(=O)[C@]2(NC(=O)OCc3ccccc3)CCOc3ccccc32)c1 | > 99.5
54 | O=C(O)c1cc(Cl)ccc1NS(=O)(=O)c1ccc(N[C@H]2CCOC2)nc1 | > 99.5
55 | O=C(O)c1cc2c(cc1NS(=O)(=O)c1ccc(Oc3ccccc3Cl)cc1)CCC2 | 7.97
56 | NCc1cccc(NC(=O)[C@@H](NC(=O)OCc2ccccc2)c2ccc(-c3ccccc3F)cc2)c1 | 10.4
57 | COc1cc(Cl)cc(C(=O)O)c1NS(=O)(=O)c1ccc(Oc2ccccc2Cl)cc1 | 22.6
58 | NCc1cc(Cl)ccc1NS(=O)(=O)c1ccc(Oc2ccccc2Cl)cc1 | > 99.5
59 | COC(=O)c1cc(Cl)ccc1NS(=O)(=O)c1ccc(Oc2ccccc2Cl)cc1 | > 99.5
60 | O=C(O)[C@H]1CCCC[C@@H]1NS(=O)(=O)c1ccc(Oc2ccccc2Cl)cc1 | > 99.5
61 | O=C(NCC1CC1)c1cc(Cl)cc(NS(=O)(=O)c2ccc(Oc3ccccc3Cl)cc2)c1 | 23.5
62 | O=C(O)[C@@H]1CC2(CC[C@@H]1NS(=O)(=O)c1ccc(Oc3ccccc3Cl)cc1)CC2 | > 99.5
63 | NCc1cccc(NC(=O)CN2CCN(C(=O)OCc3ccccc3)CC2)c1 | > 99.5
64 | O=C(NCC(F)(F)F)c1cc(Cl)c(F)cc1NS(=O)(=O)c1ccc(Oc2ccccc2Cl)cc1 | 5.18
65 | COC(=O)c1cc(Cl)ccc1NS(=O)(=O)c1ccc(Cl)nc1 | > 99.5
66 | NCc1cccc(NC(=O)CN(C(=O)OCc2ccccc2)c2ccc(OCc3ccccc3)cc2)c1 | 34.9
67 | CCn1cc(-c2cc(F)ccc2C)nc(N2CC[C@@H](CO)C2)c1=O | > 99.5
68 | NCc1cccc(NC(=O)[C@@H](NC(=O)OCc2ccccc2)c2cccnc2)c1 | > 99.5
69 | O=C(NCc1cc(Cl)ccc1NS(=O)(=O)c1ccc(Oc2ccccc2Cl)cc1)C1CC1 | > 99.5
70 | NCc1cccc(NC(=O)[C@H](NC(=O)OCc2ccccc2)C2CCCCC2)c1 | > 99.5
71 | CN(c1ncnc(-c2ccsc2C=O)n1)C1CCNCC1 | > 99.5
72 | O=C(O)c1ccsc1NS(=O)(=O)c1ccc(Oc2ccccc2Cl)cc1 | 20.1
73 | NCc1cccc(NC(=O)c2cc(OCc3ccccc3)ccc2CNC(=O)OCc2ccccc2)c1 | 24.8
74 | O=C(O)c1cc(Cl)ccc1S(=O)(=O)Nc1ccc(Oc2ccccc2Cl)cc1 | 16.8
75 | O=C(O)[C@@H]1CCCC[C@H]1NS(=O)(=O)c1ccc(Oc2ccccc2Cl)cc1 | > 99.5
76 | O=C(O)c1cc(F)c(F)cc1NS(=O)(=O)c1ccc(Oc2ccccc2Cl)cc1 | 11.2
77 | O=C(N[C@@H]1CCc2cn[nH]c2C1)c1cccc2c1NC(=O)[C@]1(CCCN1)C2 | > 99.5
78 | C[C@@H](NC(=O)c1ccc2[nH]cc(C=O)c2c1)C1=CCN(C)CC1 | > 99.5

Row | Compound | IC50 [µM]
79 | CCc1ccc(-c2cn(CC)c(=O)c(N3CC[C@@H](CO)C3)n2)s1 | > 99.5
80 | O=C(O)c1nscc1NS(=O)(=O)c1ccc(Oc2ccccc2Cl)cc1 | 63.2
81 | OC[C@H]1CCN(c2ccnc(C(F)F)c2)C1 | > 99.5
82 | C[C@H]1CN(C(=O)Cc2ccc(C=O)[nH]2)CCN1C1CCCC1 | > 99.5
83 | CCn1cc(-c2cnccc2C)nc(N2CC[C@@H](CO)C2)c1=O | > 99.5
84 | O=C(O)c1cc(NS(=O)(=O)c2ccc(Oc3ccccc3Cl)cc2)ccc1Cl | > 99.5
85 | O=C(O)c1cscc1NS(=O)(=O)c1ccc(Oc2ccccc2Cl)cc1 | 34.1
86 | CCn1ccnc(N2C[C@@H](OC(=O)OC)[C@H](c3c[nH]c4ccccc34)C2)c1=O | > 99.5
87 | Cc1cccc([C@@H](NC(=O)OCc2ccccc2)C(=O)Nc2cccc(CN)c2)n1 | > 99.5
88 | CC1(C)CCC([C@@H](NC(=O)OCc2ccccc2)C(=O)Nc2cccc(CN)c2)CC1 | > 99.5
89 | Cn1cc(CN2CCC(c3c[nH]c4cccnc34)CC2)c2ccccc21 | > 99.5
90 | O=C(O)CN(c1ccc(Cl)cc1)S(=O)(=O)c1ccc(Oc2ccccc2Cl)cc1 | 86.6
91 | CC(C)(C)OC(=O)NCc1cccc(NC(=O)[C@@H](NC(=O)OCc2ccccc2)c2cccc(O)c2)c1 | > 99.5
92 | Cc1cc(C=O)c(C)n1-c1cccc(C(=O)N2CCN(C)CC2)c1 | > 99.5
93 | O=C(O)[C@@H]1CCCC[C@@H]1NS(=O)(=O)c1ccc(Oc2ccccc2Cl)cc1 | > 99.5
94 | O=Cc1ccc(CC(=O)N2C[C@@H](O)[C@H](N3CCOCC3)C2)cc1 | > 99.5
95 | Cc1nccnc1Oc1ccc(S(=O)(=O)Nc2ccc(Cl)cc2C(=O)O)cc1 | > 99.5
96 | NCc1cccc(NC(=O)C2(CNC(=O)OCc3ccccc3)CCCC2)c1 | > 99.5
97 | COc1cc(NS(=O)(=O)c2ccc(Oc3ccccc3Cl)cc2)c(C(=O)O)cc1Cl | 8.67
98 | O=C(O)c1cc(Cl)ccc1NS(=O)(=O)c1ccc(OCc2ncccn2)cc1 | > 99.5
99 | Cc1cc(C(=O)N[C@@H]2CC[C@@H]3CN(C)C[C@@H]32)sc1C=O | > 99.5
100 | NC(=O)c1ccc(N2CC[C@@H](CO)C2)cc1 | > 99.5
101 | Cc1ncc(-c2ccc([C@@H](NC(=O)OCc3ccccc3)C(=O)Nc3cccc(CN)c3)cc2)s1 | 29.4
102 | O=C(NCC1CC1)[C@H]1CCCC[C@H]1NS(=O)(=O)c1ccc(Oc2ccccc2Cl)cc1 | > 99.5
103 | OC[C@H]1CCN(c2cnc3ccccc3n2)C1 | > 99.5
104 | CCn1ccnc(N2C[C@H](c3c[nH]c4ccccc34)[C@H](OC(C)=O)C2)c1=O | > 99.5
